Numbered stars: 1 amine (or outer) side, 2 acyl side, 3 side chain; on linkers, the order of the positions; unused ones are H or OH. Bridge positions count the residues as written; N and C are the ends. Square brackets hold non-standard residues; d marks the D form. Peptide text beside a SMILES is read from it. TBMB = c1c(C[*:1])cc(C[*:3])cc1C[*:2]; NMeS = CN[C@@H](CO)C(=O)O; NMeA = CN[C@@H](C)C(=O)O

The target of the assay is human plasma kallikrein (hPK) (Homo sapiens, UniProt P03952). The assay can be described thus: Enzyme inhibition assay, human plasma kallikrein. Particulars: for fold reduction in affinity to kallikrein compared to wildtype peptide: versus Ac-06-34-18(TMB)-NH2.

In turn, `CC(=O)N[C@H]1CSCc2cc3cc(c2)CSC[C@H](NC(=O)C[C@H](CCCNC(=N)N)NC(=O)[C@H](C)NC(=O)[C@@H]2CCCN2C(=O)[C@H](Cc2c[nH]c4ccccc24)NC(=O)[C@H](CO)NC1=O)C(=O)N[C@@H](CC(C)C)C(=O)N[C@@H](Cc1c[nH]cn1)C(=O)N[C@@H](CCC(N)=O)C(=O)N[C@@H](CC(=O)O)C(=O)N[C@@H](CC(C)C)C(=O)N[C@H](C(N)=O)CSC3` [Ac-(06-34-18) βhomoArg5] registered a Ki of 8.2 nM. The same measure, in the same setting: with `CC(=O)N[C@H]1CSCc2cc3cc(c2)CSC[C@H](NC(=O)[C@H](CCCNC(=N)N)NC(=O)[C@H](C)N(C)C(=O)[C@@H]2CCCN2C(=O)[C@H](Cc2c[nH]c4ccccc24)NC(=O)[C@H](CO)NC1=O)C(=O)N[C@@H](CC(C)C)C(=O)N[C@@H](Cc1c[nH]cn1)C(=O)N[C@@H](CCC(N)=O)C(=O)N[C@@H](CC(=O)O)C(=O)N[C@@H](CC(C)C)C(=O)N[C@H](C(N)=O)CSC3` [Ac-(06-34-18) NMeAla4] (Ac-CSWP[NMeA]RCLHQDLC-NH2; linker 1-7-13 via TBMB) the figure was 343 nM; with `CC[C@H](C)[C@@H]1NC(=O)[C@H](C(C)C)NC(=O)[C@H](CCCNC(=N)N)NC(=O)[C@@H]2CSCc3cc(cc(c3)CSC[C@@H](C(=O)N[C@@H](C)C(N)=O)NC1=O)CSC[C@H](NC(=O)[C@H](C)N)C(=O)N[C@@H](Cc1ccccc1)C(=O)N[C@@H](CC(=O)O)C(=O)N1CCC[C@H]1C(=O)N2` [Peptide 3B9] (H-ACFDPCRVICA-NH2; linker 2-6-10 via TBMB), 90.8 nM. For the molecule `CC(=O)N[C@H]1CSCc2cc3cc(c2)CSC[C@H](NC(=O)[C@H](Cc2ccc(NC(=N)N)cc2)NC(=O)[C@H](C)NC(=O)[C@@H]2CCCN2C(=O)[C@H](Cc2c[nH]c4ccccc24)NC(=O)[C@H](CO)NC1=O)C(=O)N[C@@H](CC(C)C)C(=O)N[C@@H](Cc1c[nH]cn1)C(=O)N[C@@H](CCC(N)=O)C(=O)N[C@@H](CC(=O)O)C(=O)N[C@@H](CC(C)C)C(=O)N[C@H](C(N)=O)CSC3` [Ac-(06-34-18) 4GuanPhe5], the affinity corresponds to a Ki of 0.3 nM and the “fold reduction in affinity to kallikrein compared to wildtype peptide” value (“fold reduction in affinity to kallikrein” for short) is given as 2 fold. Regarding `CC(=O)N[C@H]1CSCc2cc3cc(c2)CSC[C@H](NC(=O)[C@H](CCCNC(=N)N)NC(=O)[C@H](C)NC(=O)[C@H](CCC(N)=O)NC(=O)[C@H](C)NC(=O)[C@H](CO)NC1=O)C(=O)N[C@@H](CC(C)C)C(=O)N[C@@H](Cc1c[nH]cn1)C(=O)N[C@@H](CCC(N)=O)C(=O)N[C@@H](CC(=O)O)C(=O)N[C@@H](CC(C)C)C(=O)N[C@H](C(N)=O)CSC3` [Ac-(06-34-18) A2Q3] (Ac-CSAQARCLHQDLC-NH2; linker 1-7-13 via TBMB), the Ki worked out at 15800 nM.

The molecule `CC(C)[C@@H]1NC(=O)[C@H](CCCNC(=N)N)NC(=O)[C@@H]2CSCc3cc(cc(c3)CSC[C@@H](C(=O)N[C@@H](C)C(N)=O)NC(=O)[C@H](C)NC1=O)CSC[C@H](NC(=O)[C@H](C)N)C(=O)N[C@@H](Cc1ccccc1)C(=O)N1CCC[C@H]1C(=O)N[C@@H](CCCCN)C(=O)N2` [Peptide 3A3] (H-ACFPKCRVACA-NH2; linker 2-6-10 via TBMB) gave an inhibitory constant (Ki) of 43.1 nM. Molecule `CC(C)[C@@H]1NC(=O)[C@H](CCCNC(=N)N)NC(=O)[C@@H]2CSCc3cc(cc(c3)CSC[C@@H](C(=O)N[C@@H](C)C(N)=O)NC(=O)[C@H](CC(N)=O)NC1=O)CSC[C@H](NC(=O)[C@H](C)N)C(=O)N[C@@H](Cc1ccccc1)C(=O)N[C@@H](Cc1ccc(O)cc1)C(=O)N[C@@H](CCCCN)C(=O)N2` [Peptide 06-71] (H-ACFYKCRVNCA-NH2; linker 2-6-10 via TBMB) gave a Ki of 15.2 nM. This Ki lies about 2.8-fold lower than the previous one.

With `CC(=O)N[C@H]1CSCc2cc3cc(c2)CSC[C@H](NC(=O)[C@@H]2CCCN2C(=O)[C@H](CO)NC(=O)[C@H](CCCNC(=N)N)NC(=O)[C@H](C)NC(=O)[C@H](Cc2c[nH]c4ccccc24)NC1=O)C(=O)N[C@@H](CC(C)C)C(=O)N[C@@H](Cc1c[nH]cn1)C(=O)N[C@@H](CCC(N)=O)C(=O)N[C@@H](CC(=O)O)C(=O)N[C@@H](CC(C)C)C(=O)N[C@H](C(N)=O)CSC3` [Ac-(06-34-18) Scram4] (Ac-CWARSPCLHQDLC-NH2; linker 1-7-13 via TBMB), the affinity corresponds to a Ki of 67500 nM. This Ki is about 4400-fold higher than that of the molecule before.

Molecule `CC(C)[C@@H]1NC(=O)[C@H](CCCNC(=N)N)NC(=O)[C@@H]2CSCc3cc(cc(c3)CSC[C@@H](C(=O)N[C@@H](C)C(N)=O)NC(=O)[C@H](CC(N)=O)NC1=O)CSC[C@H](NC(=O)[C@H](C)N)C(=O)N[C@@H](Cc1ccccc1)C(=O)N[C@@H](CC(N)=O)C(=O)N[C@@H](CCCCN)C(=O)N2` [Peptide 06-64] (H-ACFNKCRVNCA-NH2; linker 2-6-10 via TBMB) displayed an inhibitory constant (Ki) of 4.8 nM. In turn, `CC(=O)N[C@H]1CSCc2cc3cc(c2)CSC[C@@H](NC(=O)[C@H](CCCNC(=N)N)NC(=O)[C@H](C)NC(=O)[C@@H]2CCCN2C(=O)[C@H](Cc2c[nH]c4ccccc24)NC(=O)[C@H](CO)NC1=O)C(=O)N[C@@H](CC(C)C)C(=O)N[C@@H](Cc1c[nH]cn1)C(=O)N[C@@H](CCC(N)=O)C(=O)N[C@@H](CC(=O)O)C(=O)N[C@@H](CC(C)C)C(=O)N[C@H](C(N)=O)CSC3` [Ac-(06-34-18) D-Cys2] showed an inhibition constant Ki of 234 nM. Still for that read-out and setting: the value for `CC(=O)N[C@H]1CSCc2cc3cc(c2)CSC[C@H](NC(=O)[C@H](CCCNC(=N)N)NC(=O)[C@H](C)N(C)C(=O)[C@@H]2CCCN2C(=O)[C@H](Cc2c[nH]c4ccccc24)NC(=O)[C@H](CO)N(C)C1=O)C(=O)N[C@@H](CC(C)C)C(=O)N[C@@H](Cc1c[nH]cn1)C(=O)N[C@@H](CCC(N)=O)C(=O)N[C@@H](CC(=O)O)C(=O)N[C@@H](CC(C)C)C(=O)N[C@H](C(N)=O)CSC3` [Ac-(06-34-18) NMeSer1, NMeAla4] (Ac-C[NMeS]WP[NMeA]RCLHQDLC-NH2; linker 1-7-13 via TBMB) was 444 nM. Regarding `CC(=O)N[C@H]1CSCc2cc3cc(c2)CSC[C@H](NC(=O)[C@@H](CCCNC(=N)N)NC(=O)[C@H](C)NC(=O)[C@@H]2CCCN2C(=O)[C@H](Cc2c[nH]c4ccccc24)NC(=O)[C@H](CO)NC1=O)C(=O)N[C@@H](CC(C)C)C(=O)N[C@@H](Cc1c[nH]cn1)C(=O)N[C@@H](CCC(N)=O)C(=O)N[C@@H](CC(=O)O)C(=O)N[C@@H](CC(C)C)C(=O)N[C@H](C(N)=O)CSC3` [Ac-(06-34-18) D-Arg5], the Ki is 52 nM and the “fold reduction in affinity to kallikrein” value was 300 fold.

Regarding `CC(=O)N[C@H]1CSCc2cc3cc(c2)CSC[C@H](NC(=O)[C@H](CCCNC(=N)N)NC(=O)[C@H](C)NC(=O)[C@@H]2CCCN2C(=O)[C@@H](Cc2c[nH]c4ccccc24)NC(=O)[C@H](CO)NC1=O)C(=O)N[C@@H](CC(C)C)C(=O)N[C@@H](Cc1c[nH]cn1)C(=O)N[C@@H](CCC(N)=O)C(=O)N[C@@H](CC(=O)O)C(=O)N[C@@H](CC(C)C)C(=O)N[C@H](C(N)=O)CSC3` [Ac-(06-34-18) D-Trp2], the affinity, expressed as Ki, was 7560 nM and the “fold reduction in affinity to kallikrein” value turned out to be 45000 fold.

On to `CC(=O)N[C@H]1CSCc2cc3cc(c2)CSC[C@H](NC(=O)[C@H](CCCNC(=N)N)NC(=O)[C@H](C)NC(=O)[C@H](C)NC(=O)[C@H](C)NC(=O)[C@H](CO)NC1=O)C(=O)N[C@@H](CC(C)C)C(=O)N[C@@H](Cc1c[nH]cn1)C(=O)N[C@@H](CCC(N)=O)C(=O)N[C@@H](CC(=O)O)C(=O)N[C@@H](CC(C)C)C(=O)N[C@H](C(N)=O)CSC3` [Ac-(06-34-18) A2A3] (Ac-CSAAARCLHQDLC-NH2; linker 1-7-13 via TBMB), for which the Ki came to 18500 nM.

Broadly, the Ki is the equilibrium dissociation constant of an inhibitor or competing ligand from its target. A low value points to a stronger hold on the target.
